Data as given in patent US8501238B2, “Anti-infective agents and uses thereof” (priority 2007, dated 2013).

Tests used:
[1] = target: T1, HCV polymerase 1A (Δ21 NS5B) (Hepatitis C virus genotype 1a, UniProt P27958); experiment: HCV Polymerase Inhibition Assay (1a); assay type: biochemical
T1 construct: 20 to 50nM Δ21 NS5B
Outline: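 Δ21 NS5B reactions contained 20 μM CTP, 20 μM ATP, 1 μM ³H-UTP and 5 nM template RNA and ran for 2–4 h at room temperature. RNA was then spermine-precipitated, filter-captured and counted by scintillation. IC50 came from a tight-binding (Morrison) nonlinear fit of retained cpm against inhibitor concentration.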

[2] = target: T2, HCV polymerase 1B (Δ21 NS5B) (Hepatitis C virus genotype 1b, UniProt P26663); experiment: biochemical
T2 construct: 20 to 50nM Δ21 NS5B
T2 sequence (P26663 2420-2989, stated change not applied): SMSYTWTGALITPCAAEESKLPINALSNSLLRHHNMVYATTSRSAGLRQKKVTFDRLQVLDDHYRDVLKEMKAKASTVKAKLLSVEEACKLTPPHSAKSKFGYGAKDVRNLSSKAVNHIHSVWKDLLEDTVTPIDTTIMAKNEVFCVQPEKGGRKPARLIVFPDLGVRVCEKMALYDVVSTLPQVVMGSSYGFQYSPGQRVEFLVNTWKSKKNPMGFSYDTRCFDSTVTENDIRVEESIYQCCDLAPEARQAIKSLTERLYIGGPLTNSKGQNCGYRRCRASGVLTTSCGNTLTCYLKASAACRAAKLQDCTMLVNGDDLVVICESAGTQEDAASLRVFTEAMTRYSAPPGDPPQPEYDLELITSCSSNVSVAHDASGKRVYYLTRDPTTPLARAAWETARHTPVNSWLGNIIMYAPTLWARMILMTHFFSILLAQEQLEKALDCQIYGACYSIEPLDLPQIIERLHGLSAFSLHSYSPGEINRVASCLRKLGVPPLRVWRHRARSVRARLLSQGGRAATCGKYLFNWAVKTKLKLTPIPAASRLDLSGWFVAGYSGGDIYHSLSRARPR
Outline: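 Inhibitor pre-incubated 15 min at room temperature with Δ21 NS5B (strain BK or H77, 20–50 nM), 60–125 μM GTP, 2 mM MnCl2, pH 7.4. Reaction started with 20 μM CTP, 20 μM ATP, 1 μM 3H-UTP and 5 nM template RNA, run 2–4 h at room temperature. Spermine-precipitated RNA filter-captured and scintillation-counted; IC50 from tight-binding equation fit.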

[3] = test system: genotype 1a-H77 subgenomic replicon cell line; experiment: microbe, parasite or virus in culture; assay type: cell-based, HCV; details: Hepatitis C virus, 72 h, read-out: EC50 1a
[4] = test system: genotype 1b-Con1 subgenomic replicon cell line; experiment: microbe, parasite or virus in culture; assay type: cell-based, HCV; details: Hepatitis C virus, 72 h, read-out: EC50 1b

T1 sequence (P27958 2421-2990, stated change not applied): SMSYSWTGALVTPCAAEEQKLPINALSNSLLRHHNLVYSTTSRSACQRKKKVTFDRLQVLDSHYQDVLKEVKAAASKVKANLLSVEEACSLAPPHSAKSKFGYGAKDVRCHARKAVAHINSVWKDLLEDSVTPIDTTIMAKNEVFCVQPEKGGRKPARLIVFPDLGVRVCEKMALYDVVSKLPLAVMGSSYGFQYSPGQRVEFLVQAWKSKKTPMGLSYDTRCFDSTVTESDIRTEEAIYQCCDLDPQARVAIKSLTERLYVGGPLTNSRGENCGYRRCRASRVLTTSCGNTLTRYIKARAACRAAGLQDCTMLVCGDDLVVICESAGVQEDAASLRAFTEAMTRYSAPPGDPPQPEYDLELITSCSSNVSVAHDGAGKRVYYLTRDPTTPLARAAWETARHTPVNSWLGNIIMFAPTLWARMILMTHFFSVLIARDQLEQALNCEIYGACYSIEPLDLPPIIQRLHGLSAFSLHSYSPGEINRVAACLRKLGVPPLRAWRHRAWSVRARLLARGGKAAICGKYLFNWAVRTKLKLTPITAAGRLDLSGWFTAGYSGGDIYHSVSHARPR

**Q.** With `CCOc1c(-c2ccc3cc(NS(C)(=O)=O)ccc3c2)cc(-n2ccc(=O)[nH]c2=O)cc1C(C)(C)C` [IB-L0-2.23, N-(6-(3-tert-butyl-5-(2,4-dioxo-3,4-dihydropyrimidin-1(2H)-yl)-2-ethoxyphenyl)naphthalen-2-yl)methanesulfonamide] as the compound, how does the IC50 [1] read?
**A.** The IC50 was 10 to 100 nM.

**Q.** What about the IC50 [2] of the same compound?
**A.** The IC50 was < 10 nM.

**Q.** And the EC50 [3]?
**A.** Its EC50 is 100 to 1000 nM.

**Q.** And the EC50 [4]?
**A.** Its EC50 is 10 to 100 nM.

**Q.** And the melting point?
**A.** Its melting point is 196 to 202 °C.

**Q.** Which IC50 [1] does the source give for `COc1c(C#C[Si](C)(C)C)cc(-n2ccc(=O)[nH]c2=O)cc1-c1ccc2cc(NS(C)(=O)=O)ccc2c1` [IB-L0-2.78, N-(6-(5-(2,4-dioxo-3,4-dihydropyrimidin-1(2H)-yl)-2-methoxy-3-((trimethylsilyl)ethynyl)phenyl)naphthalen-2-yl)methanesulfonamide] here?
**A.** Its IC50 is > 1000 nM.

**Q.** And the IC50 [2]?
**A.** The IC50 was > 1000 nM.

**Q.** And the melting point?
**A.** The melting point was 175 to 178 °C.

**Q.** What does the source list for `COc1c(-c2ccc3cc(NS(C)(=O)=O)ccc3c2)cc(-n2ccc(=O)[nH]c2=O)cc1C(C)(C)CO` [IB-L0-2.54, N-(6-(5-(2,4-dioxo-3,4-dihydropyrimidin-1(2H)-yl)-3-(1-hydroxy-2-methylpropan-2-yl)-2-methoxyphenyl)naphthalen-2-yl)methanesulfonamide]?
**A.** IC50 [1]: < 10 nM; IC50 [2]: 10 to 100 nM; EC50 [3]: 10 to 100 nM; EC50 [4]: 10 to 100 nM; melting point: 256 to 257 °C

**Q.** What does the source list for `COc1c(-c2ccc3cc(NS(C)(=O)=O)ccc3c2)cc(-n2ccc(=O)[nH]c2=O)cc1C(C)(C)C(=O)O` [IB-L0-2.77, 2-(5-(2,4-dioxo-3,4-dihydropyrimidin-1(2H)-yl)-2-methoxy-3-(6-(methylsulfonamido)naphthalen-2-yl)phenyl)-2-methylpropanoic acid]?
**A.** IC50 [1]: > 1000 nM; IC50 [2]: > 1000 nM; melting point: > 300 °C

**Q.** For `COc1c(-c2ccc3cc(NS(C)(=O)=O)ccc3c2)cc(-n2ccc(=O)[nH]c2=O)cc1-c1ccc(C)o1` [IB-L0-2.58, N-(6-(5-(2,4-dioxo-3,4-dihydropyrimidin-1(2H)-yl)-2-methoxy-3-(5-methylfuran-2-yl)phenyl)naphthalen-2-yl)methanesulfonamide], which IC50 [1] is on record?
**A.** Its IC50 is < 10 nM.

**Q.** And the IC50 [2]?
**A.** Its IC50 is 10 to 100 nM.

**Q.** And the EC50 [3]?
**A.** The EC50 was 10 to 100 nM.

**Q.** What about the EC50 [4] of the same compound?
**A.** The EC50 was < 10 nM.

**Q.** What about the melting point of the same compound?
**A.** Its melting point is 174 to 178 °C.

**Q.** Which IC50 [1] does the source give for `CC(C)(C)c1cc(-n2ccc(=O)[nH]c2=O)cc(-c2ccc3cc(NS(C)(=O)=O)ccc3c2)c1Cl` [IB-L0-2.14, N-(6-(3-tert-butyl-2-chloro-5-(2,4-dioxo-3,4-dihydropyrimidin-1(2H)-yl)phenyl)naphthalen-2-yl)methanesulfonamide] here?
**A.** The IC50 was < 10 nM.

**Q.** And the IC50 [2]?
**A.** The IC50 was < 10 nM.

**Q.** And the EC50 [3]?
**A.** Its EC50 is 100 to 1000 nM.

**Q.** What about the EC50 [4] of the same compound?
**A.** The EC50 was 10 to 100 nM.

**Q.** What about the melting point of the same compound?
**A.** The melting point was > 280 °C.

**Q.** Which IC50 [1] does the source give for `COc1c(-c2ccc3cc(NS(C)(=O)=O)ccc3c2)cc(-n2ccc(=O)[nH]c2=O)cc1C(F)(F)C(F)(F)F` [IB-L0-2.60, N-(6-(5-(2,4-dioxo-3,4-dihydropyrimidin-1(2H)-yl)-2-methoxy-3-(perfluoroethyl)phenyl)naphthalen-2-yl)methanesulfonamide] here?
**A.** The IC50 was < 10 nM.

**Q.** And the IC50 [2]?
**A.** The IC50 was 10 to 100 nM.

**Q.** What about the EC50 [3] of the same compound?
**A.** Its EC50 is 100 to 1000 nM.

**Q.** And the EC50 [4]?
**A.** The EC50 was 10 to 100 nM.

**Q.** And the melting point?
**A.** The melting point was 162 to 165 °C.

**Q.** With `COc1c(-c2ccc3nc(NS(C)(=O)=O)sc3c2)cc(-n2ccc(=O)[nH]c2=O)cc1C(C)(C)C` [IB-L0-2.28, N-(6-(3-tert-butyl-5-(2,4-dioxo-3,4-dihydropyrimidin-1(2H)-yl)-2-methoxyphenyl)benzo[d]thiazol-2-yl)methanesulfonamide] as the compound, how does the IC50 [1] read?
**A.** The IC50 was 10 to 100 nM.

**Q.** What about the IC50 [2] of the same compound?
**A.** The IC50 was 10 to 100 nM.

**Q.** And the EC50 [3]?
**A.** The EC50 was > 1000 nM.

**Q.** What about the EC50 [4] of the same compound?
**A.** The EC50 was 100 to 1000 nM.

**Q.** With `COc1c(-c2ccc3cc(NS(C)(=O)=O)ccc3c2)cc(-n2ccc(=O)[nH]c2=O)cc1-c1cccs1` [IB-L0-2.61, N-(6-(5-(2,4-dioxo-3,4-dihydropyrimidin-1(2H)-yl)-2-methoxy-3-(thiophen-2-yl)phenyl)naphthalen-2-yl)methanesulfonamide] as the compound, how does the IC50 [1] read?
**A.** The IC50 was < 10 nM.

**Q.** And the IC50 [2]?
**A.** The IC50 was 10 to 100 nM.

**Q.** And the EC50 [3]?
**A.** Its EC50 is 100 to 1000 nM.

**Q.** And the EC50 [4]?
**A.** The EC50 was 10 to 100 nM.

**Q.** Which results are given for `COc1c(N2CCc3cc(NS(C)(=O)=O)ccc3C2)cc(-n2ccc(=O)[nH]c2=O)cc1C(C)(C)C` [IB-L0-2.19, N-(2-(3-tert-butyl-5-(2,4-dioxo-3,4-dihydropyrimidin-1(2H)-yl)-2-methoxyphenyl)-1,2,3,4-tetrahydroisoquinolin-6-yl)methanesulfonamide]?
**A.** IC50 [1]: < 10 nM; IC50 [2]: 10 to 100 nM; EC50 [3]: 10 to 100 nM; EC50 [4]: 10 to 100 nM

**Q.** What does the source list for `COc1c(-c2nc3ccccc3s2)cc(N2CCC(=O)NC2=O)cc1C(C)(C)C` [IA-L0-2.3, 1-(3-(benzo[d]thiazol-2-yl)-5-tert-butyl-4-methoxyphenyl)dihydro pyrimidine-2,4(1H,3H)-dione]?
**A.** IC50 [1]: 100 to 1000 nM; IC50 [2]: 100 to 1000 nM; EC50 [3]: 100 to 1000 nM; EC50 [4]: 100 to 1000 nM

**Q.** Which IC50 [1] does the source give for `COc1c(I)cc(-n2ccc(=O)[nH]c2=O)cc1-c1ccc2cc(NS(C)(=O)=O)ccc2c1` [IB-L0-2.57, N-(6-(5-(2,4-dioxo-3,4-dihydropyrimidin-1(2H)-yl)-3-iodo-2-methoxyphenyl)naphthalen-2-yl)methanesulfonamide] here?
**A.** The IC50 was < 10 nM.

**Q.** And the IC50 [2]?
**A.** The IC50 was 10 to 100 nM.

**Q.** And the EC50 [3]?
**A.** Its EC50 is 100 to 1000 nM.

**Q.** And the EC50 [4]?
**A.** Its EC50 is 10 to 100 nM.

**Q.** Which IC50 [1] does the source give for `COc1c(-c2ccc3ccccc3c2)cc(-n2ccc(=O)[nH]c2=O)cc1C(C)(C)C` [IB-L0-2.1, 1-(3-tert-butyl-4-methoxy-5-(naphthalen-2-yl)phenyl)pyrimidine-2,4(1H,3H)-dione] here?
**A.** The IC50 was 100 to 1000 nM.

**Q.** What about the IC50 [2] of the same compound?
**A.** The IC50 was 100 to 1000 nM.

**Q.** What about the EC50 [3] of the same compound?
**A.** The EC50 was > 1000 nM.

**Q.** And the EC50 [4]?
**A.** The EC50 was 100 to 1000 nM.

**Q.** With `COc1c(-c2nc3ccc(NS(C)(=O)=O)cc3s2)cc(N2CCC(=O)NC2=O)cc1C(C)(C)C` [IA-L0-2.2, N-(2-(3-tert-butyl-5-(2,4-dioxotetrahydropyrimidin-1(2H)-yl)-2-methoxyphenyl)benzo[d]thiazol-6-yl)methanesulfonamide] as the compound, how does the IC50 [1] read?
**A.** The IC50 was 10 to 100 nM.

**Q.** And the IC50 [2]?
**A.** Its IC50 is 10 to 100 nM.

**Q.** And the EC50 [3]?
**A.** Its EC50 is 100 to 1000 nM.

**Q.** What about the EC50 [4] of the same compound?
**A.** The EC50 was 10 to 100 nM.

**Q.** Which results are given for `COc1c(-c2ccc3nc(N)sc3c2)cc(-n2ccc(=O)[nH]c2=O)cc1C(C)(C)C` [IB-L0-2.27, 1-(3-(2-aminobenzo[d]thiazol-6-yl)-5-tert-butyl-4-methoxy-phenyl)pyrimidine-2,4(1H,3H)-dione]?
**A.** IC50 [1]: 10 to 100 nM; IC50 [2]: 10 to 100 nM; EC50 [3]: 100 to 1000 nM; EC50 [4]: 10 to 100 nM

**Q.** For `COc1c(-c2ccc3nc(NS(C)(=O)=O)ccc3c2)cc(-n2ccc(=O)[nH]c2=O)cc1C(C)(C)C` [IB-L0-2.5, N-(6-(3-tert-butyl-5-(2,4-dioxo-3,4-dihydropyrimidin-1(2H)-yl)-2-methoxyphenyl)quinolin-2-yl)methanesulfonamide], which IC50 [1] is on record?
**A.** The IC50 was 10 to 100 nM.

**Q.** And the IC50 [2]?
**A.** Its IC50 is 10 to 100 nM.

**Q.** What about the EC50 [3] of the same compound?
**A.** Its EC50 is 10 to 100 nM.

**Q.** What about the EC50 [4] of the same compound?
**A.** Its EC50 is < 10 nM.

**Q.** With `COc1c(-c2ccsc2)cc(-n2ccc(=O)[nH]c2=O)cc1-c1ccc2cc(NS(C)(=O)=O)ccc2c1` [IB-L0-2.53, N-(6-(5-(2,4-dioxo-3,4-dihydropyrimidin-1(2H)-yl)-2-methoxy-3-(thiophen-3-yl)phenyl)naphthalen-2-yl)methanesulfonamide] as the compound, how does the IC50 [1] read?
**A.** The IC50 was < 10 nM.

**Q.** What about the IC50 [2] of the same compound?
**A.** The IC50 was 10 to 100 nM.

**Q.** What about the EC50 [3] of the same compound?
**A.** Its EC50 is 10 to 100 nM.

**Q.** What about the EC50 [4] of the same compound?
**A.** Its EC50 is 10 to 100 nM.

**Q.** What does the source list for `COc1c(-c2ccc3c(c2)CCN(NS(C)(=O)=O)C3)cc(-n2ccc(=O)[nH]c2=O)cc1C(C)(C)C` [IB-L0-2.43, N-(6-(3-tert-butyl-5-(2,4-dioxo-3,4-dihydropyrimidin-1(2H)-yl)-2-methoxyphenyl)-3,4-dihydroisoquinolin-2(1H)-yl)methanesulfonamide]?
**A.** IC50 [1]: 100 to 1000 nM; IC50 [2]: 100 to 1000 nM; EC50 [3]: > 1000 nM; EC50 [4]: 100 to 1000 nM

**Q.** Which IC50 [1] does the source give for `COc1c(-c2ccc3cc(NS(C)(=O)=O)ccc3c2)cc(-n2ccc(=O)[nH]c2=O)cc1-c1ccco1` [IB-L0-2.59, N-(6-(5-(2,4-dioxo-3,4-dihydropyrimidin-1(2H)-yl)-3-(furan-2-yl)-2-methoxyphenyl)naphthalen-2-yl)methanesulfonamide] here?
**A.** Its IC50 is < 10 nM.

**Q.** What about the IC50 [2] of the same compound?
**A.** Its IC50 is 10 to 100 nM.

**Q.** What about the EC50 [3] of the same compound?
**A.** Its EC50 is 100 to 1000 nM.

**Q.** And the EC50 [4]?
**A.** Its EC50 is 10 to 100 nM.
